Experiments:
[1] = system: adhesion of intestinal epithelial cells (HT-29) and monocytic cells (U937) induced by TNF-α; assay: Inhibition of TNF-α-induced adhesion of monocytes and intestinal epithelial cells; assay type: cell-based, human; details: for inhibition at 1 µM: read-out: Inhibitory activity (%); for IC50: inhibition of adhesion by TNF-α
Method: HT-29 human colon cancer-derived epithelial cells and U937 human-derived monocytes were cultured in RPMI 1640 medium containing 10% FBS and 1% penicillin/streptomycin (PS) in a 37° C., 5% CO2 incubator. When the cells grew more than 80% of the bottom area of the culture flask, they were passaged at a ratio of 1:3 and used in this experiment. HT-29 cells were cultured in a 24-well plate at the density of 2×10^5 cells/cm^2, and the test drug was pretreated in a medium containing 1% FBS and 1% PS for 1 hour. Thereafter, 10 μg/mL of BCECF-AM was treated thereto and reacted at 37° C. for 30 minutes. U937 cells loaded with BCECF and TNF-α (10 ng/mL) were reacted with HT-29 cells previously treated with the test drug at 37° C. for 3 hours. Upon completion of the reaction, the medium was removed, and the culture flask was washed twice with PBS to remove non-adherent U937 cells. In the next step, the cells were lysed by treating with 0.1% Triton X-100 (0.1 M Tris) and reacted at room temperature for 30 minutes. Then, fluorescence was measured and quantified using a fluostar optima microplate reader (BMG Labtechnologies, Germany) (Carvalho et al., 1996; Thapa et al., 2008).

[2] = system: adhesion of intestinal epithelial cells (HT-29) and monocytic cells (U937) induced by IL-6; assay: Inhibition of IL-6-induced adhesion of monocytes and intestinal epithelial cells; assay type: cell-based, human; details: for inhibition at 1 µM: Homo sapiens, 3 h, test drug 1 μM, IL-6 10 ng/mL, HT-29/U937, read-out: inhibitory activity (%)
Method: The inhibitory activity test for intestinal epithelial cell-monocyte adhesion by IL-6 was performed using the same method as in the case of TNF-α. HT-29 cells were cultured in a 24-well plate at the density of 2×10^5 cells/cm^2, and the test drug was pretreated in a medium containing 1% FBS and 1% PS for 1 hour. Thereafter, 10 μg/mL of BCECF-AM was treated thereto and reacted at 37° C. for 30 minutes. U937 cells loaded with BCECF and IL-6 (10 ng/mL) were reacted with HT-29 cells previously treated with the test drug at 37° C. for 3 hours. Upon completion of the reaction, the medium was removed, and the culture flask was washed twice with PBS to remove non-adherent U937 cells. In the next step, the cells were lysed by treating with 0.1% Triton X-100 (0.1 M Tris) and reacted at room temperature for 30 minutes. Then, fluorescence was measured and quantified using a fluostar optima microplate reader (BMG Labtechnologies, Germany).

[3] = system: TNBS-induced inflammatory bowel disease rat model; assay: Oral efficacy in TNBS-induced inflammatory bowel disease rat model; assay type: in vivo, Sprague Dawley rats
Method: (§1) Sprague Dawley rats aged 7-8 weeks were purchased from OrientBio (Korea), stabilized with general solid feed for 3 days, and then used in this experiment. Feed and water were freely supplied during the experiment period, and the temperature of the breeding room was maintained at 25±1° C. and the relative humidity at 50±10%. Lighting management was controlled in a 12-hour light-dark cycle by an automatic lighting controller.
After anesthetizing rats that had been fasted for 24 hours with diethyl ether, 0.8 mL of 5% TNBS diluted with 50v/v % ethanol was slowly injected into the lumen of the colon using a 1 mL syringe connected to a polyethylene catheter, and then, the rats were left standing for 60 seconds in an inverted position in order to prevent 5% TNBS from leaking into the anus. For the control group, only vehicle [50v/v % ethanol] was injected in the same manner as in the other groups (Thapa et al., 2008).
In order to investigate the effect of the drug, the drug was administered at a constant time every day for 5 days from the day after the TNBS treatment.
Changes in body weight of each rat were observed from the fasting stage to the TNBS administration and drug administration process using a digital mass meter.
The colon of the rat was extracted, and the tissue 5-6 cm away from the anus was cut into a length of 1 cm, and the weight of the tissue was measured.
The weighed rat tissues were fixed with 4% paraformaldehyde solution, and then transferred to 30% sucrose solution. When the tissues subside, they were taken out and cut into […] thick using a cryomicrotome (Microm HM 450, Thermo Fisher Scientific, Germany) and stored in a cryopreservation solution. After washing the tissue section with KPBS, the tissue section was attached to a slide glass, dried, and then stained with hematoxylin & Eosin and observed under a microscope.

[4] = system: DSS-induced chronic enteritis mouse model; assay: Oral efficacy in DSS-induced chronic enteritis mouse model; assay type: in vivo, C57BL/6 mice; details: chronic enteritis (DSS-water-DSS, total 35 days), mouse
Method: as §1, with “C57BL/6 mice” for “Sprague Dawley rats”, “7” for “3”
Enteritis was induced in mice by allowing them to freely ingest drinking water containing 2% DSS salt (M.W. 36,000˜50,000, MP Biomedicals, LLC, OH, USA). For the chronic enteritis model, DSS was administered using a schedule of DSS administration for the first 7 days, administration of normal drinking water for 14 days, repeated administration of DSS for 7 days from the 21st day, and administration of normal drinking water for 7 days. The drug was administered once a day, 6 days a week from the first day of DSS treatment (FIG. 2A). […] In order to measure the dose-dependent therapeutic effect of the drug in the acute enteritis model, DSS was administered for 5 days to induce enteritis, and then the drug was administered for 14 days to measure the degree of recovery and treatment of enteritis (FIG. 3A). The drug was administered orally once daily for […] at a fixed time.
Changes in body weight of each mouse were observed during the DSS and drug administration using a digital mass meter.
The colon of the mouse was extracted, and the length and weight from the anus to the cecum were measured.
Tissue staining was performed in the same manner as in the case of hematoxylin/eosin staining of the rat colon tissue, and scoring indexes of mucosal damage and recovery were applied in the same way.

[5] = Homo sapiens, test drug 1 μM, TNF-α 10 ng/mL, HT-29/U937
[6] = oral 1 mg/kg, 5 days, fixed-dose test (Table 6)
[7] = 10 mg/kg, dose-dependence test (Table 7)

Row | SMILES | inhibition at 1 µM [1, 5] | inhibition at 1 µM [2] | further results
1 | Cc1nc(NC(=O)c2sc3cc(F)ccc3c2Cl)c(C)c(C)c1OCC(=O)Nc1ccccc1 [XI-07, 3-chloro-6-fluoro-N-(3,4,6-trimethyl-5-(2-oxo-2-(phenylamino)ethoxy)pyridin-2-yl)benzo[b]thiophene-2-carboxamide] | 84.1% | 72.8% | Body weight recovery rate (%) [3, 6]: 82.9%; Intestinal weight recovery rate (%) [3, 6]: 91.0%
2 | C[C@]12C=CC(=O)C=C1CC[C@H]1[C@@H]3C[C@@H](O)[C@](O)(C(=O)CO)[C@@]3(C)C[C@H](O)[C@@]12F [Triamcinolone, reference compound] | – | – | Body weight recovery rate (%) [3, 7]: 70.0%; Intestinal weight recovery rate (%) [3, 7]: 84.5%
3 | Cc1nc(NC(=O)c2sc3cc(F)ccc3c2Cl)c(C)c(C)c1OC(=O)N1CCOCC1 [XI-17, 6-(3-chloro-6-fluorobenzo[b]thiophene-2-carboxamido)-2,4,5-trimethylpyridin-3-yl morpholine-4-carboxylate] | ≥ 50% | 59.6% | Body weight recovery rate (%) [3, 6]: 60.2%; Intestinal weight recovery rate (%) [3, 6]: 79.8%
4 | Cc1nc(NC(=O)c2cc3cc(Br)ccc3[nH]2)c(C)c(C)c1O [Compound X-07, 5-bromo-N-(5-hydroxy-3,4,6-trimethylpyridin-2-yl)-1H-indole-2-carboxamide] | 88.9% | 80.3% | Body weight recovery rate (%) [3, 6]: 72.9%; Intestinal weight recovery rate (%) [3, 6]: 94.9%
5 | Cc1nc(NC(=O)c2sc3cc(F)ccc3c2Cl)c(C)c(C)c1O [Compound X-24, 3-chloro-6-fluoro-N-(5-hydroxy-3,4,6-trimethylpyridin-2-yl)benzo[b]thiophene-2-carboxamide] | – | – | IC50 ([1]; Homo sapiens): 0.00023 mM; Body weight recovery rate (%) [3, 6]: 86.6%; Intestinal weight recovery rate (%) [3, 6]: 97.4%; Body weight recovery rate (%) ([4]; 1 mg/kg): 22.8%; Intestinal weight recovery rate (%) ([4]; 1 mg/kg): 58.1%; Body weight recovery rate (%) ([4]; 3 mg/kg): 73.3%; Intestinal weight recovery rate (%) ([4]; 3 mg/kg): 98.2%
6 | Cc1nc(NC(=O)c2cc3cc(Br)ccc3o2)c(C)c(C)c1O [Compound X-17, 5-bromo-N-(5-hydroxy-3,4,6-trimethylpyridin-2-yl)benzofuran-2-carboxamide] | 8.5% | 3.6% | –
7 | Cc1nc(NC(=O)c2cc3cc(Cl)ccc3[nH]2)c(C)c(C)c1O [Compound X-08, 5-chloro-N-(5-hydroxy-3,4,6-trimethylpyridin-2-yl)-1H-indole-2-carboxamide] | 31% | 21.3% | –
8 | Cc1nc(NC(=O)c2oc3ccccc3c2C)c(C)c(C)c1O [Compound X-19, N-(5-hydroxy-3,4,6-trimethylpyridin-2-yl)-3-methylbenzofuran-2-carboxamide] | 25.1% | 18.7% | –
9 | Nc1ccc(O)c(C(=O)O)c1 [Compound 5-ASA, 5-ASA, reference compound] | – | – | IC50 [1]: 18.1 mM; Inhibitory activity (%) ([1]; test drug 1 μM, TNF-α 10 ng/mL, HT-29/U937): 3.8%; IC50 ([2]; inhibition of adhesion by IL-6): 25.1 mM
10 | Cc1nc(NC(=O)c2sc3cc(F)ccc3c2Cl)c(C)c(C)c1OC(=O)c1ccc(F)cc1 [XI-09, 6-(3-chloro-6-fluorobenzo[b]thiophene-2-carboxamido)-2,4,5-trimethylpyridin-3-yl 4-fluorobenzoate] | 3.4% | 21.2% | –
11 | COc1ccc2cc(C(=O)Nc3nc(C)c(O)c(C)c3C)[nH]c2c1 [Compound X-12, N-(5-hydroxy-3,4,6-trimethylpyridin-2-yl)-6-methoxy-1H-indole-2-carboxamide] | ≥ 50% | 46% | –
12 | Cc1nc(NC(=O)c2sc3cc(F)ccc3c2Cl)c(C)c(C)c1OC(=O)c1ccc(F)nc1 [XI-13, 6-(3-chloro-6-fluorobenzo[b]thiophene-2-carboxamido)-2,4,5-trimethylpyridin-3-yl 6-fluoronicotinate] | 20.7% | 15.2% | –
13 | COc1ccc2[nH]c(C(=O)Nc3nc(C)c(O)c(C)c3C)cc2c1 [Compound X-13, N-(5-hydroxy-3,4,6-trimethylpyridin-2-yl)-5-methoxy-1H-indole-2-carboxamide] | 36.7% | 23.4% | –
14 | Cc1nc(NC(=O)c2sc3cc(Cl)ccc3c2Cl)c(C)c(C)c1O [Compound X-25, 3,6-dichloro-N-(5-hydroxy-3,4,6-trimethylpyridin-2-yl)benzo[b]thiophene-2-carboxamide] | 19.5% | 9% | –

From patent US12398117B2, “Heteroarylamidopyridinol derivative and pharmaceutical composition comprising same as active ingredient for prevention or treatment of autoimmune disease” (INNOVO THERAPEUTICS INC., priority 2019, dated 2025)
